# Data published in patent publication US20260234163A1, “NOVEL COMPOUNDS AND USES THEREOF” (ACELINK THERAPEUTICS, INC., priority 2023, published 2026).
# Biological target: T1, Keap1-Nrf2 (Homo sapiens, UniProt Q14145)
# T1 construct: purchased Sino Biological 11981-H20B
# Assay: Keap1-Nrf2 Binding Inhibitory Activity Assay (fluorescence polarization, Keap1_FL + FITC-Nrf2 peptide)
# Conditions: Keap1-FL, 60 min room temperature
# Procedure: Example 2.1 Keap1-Nrf2 Binding Inhibitory Activity Assay
# • PerkinElmer EnVision 2105 Multilabel Reader • PerkinElmer FITC FP dual emission Label 2100-8060 • LABCYTE Echo 650 • Corning 384-well microplate #4514 • Keap1_FL, Sino Biological, catalog 11981-H20B • FITC-Nrf2 peptide, GL Biochem, Lot No: p210427-XQ892761
# • a) Reference titration • 1. Keap1-Nrf2 Assay Buffer was prepared: 10 mM Tris-HCl pH 7.4, 150 mM NaCl, 50 mM EDTA, 0.05% Tween20, 0.1 mg/ml BSA (freshly add before use). • 2. 2.04× Tracer working solution was prepared: 2.04 nM FITC-Nrf2 peptide in Assay Buffer from 1 μM DMSO stock. • 3. 2× Protein working solution was prepared: 25 nM Keap1-FL in Assay Buffer. • 4. 100× compound working solutions with DMSO were prepared. Starting from 100 μM, serial 3-fold dilutions (10 points) were made by the Echo on the 384-well LDV microplate, then 200 nL of compounds, in duplicated wells, were transferred to a Corning 4514 plate. • 5. 9.8 μL per well of the Tracer working solution was added into the Corning 4514 plate. • 6. 10 μL per well of the Protein working solution was added into the Corning 4514 plate, except for the first two columns where Dilution Buffer were added to serve as “positive control”. • 7. The plate was incubated at room temperature for 60 min. • b) Read data on an EnVision with the following setting: Excitation Light (%): 84; Measurement Height: 9.4; G-Factor: 1; Detector Gain 1:220; Detector Gain 2: 220; Flash Number: 50.
# All the Test Compounds were considered as having Keap1-Nrf2 binding inhibitory activity.
row,IC50,SMILES
1,1000 to 10000 nM,"Cc1ccc2cc1CN(C)C(=O)c1ccc(cc1)COCCCn1nnc3c(C)c(ccc31)C2CC(=O)O (single isomer, unassigned) [Compound 16, 2-(1^4,3^4,5-trimethyl-6-oxo-1^1H-9-oxa-5-aza-1(5,1)-benzo[d][1,2,3]triazola-3(1,3), 7(1,4)-dibenzenacyclododecaphane-2-yl)acetic acid]"
2,1000 to 10000 nM,"Cc1ccc2cc1CN(C)C(=O)c1ccc(cc1)COCCCn1nnc3c(C)c(ccc31)C2CC(=O)O (single isomer, unassigned) [Compound 17, 2-(1^4,3^4,5-trimethyl-6-oxo-1^1H-9-oxa-5-aza-1(5,1)-benzo[d][1,2,3]triazola-3(1,3), 7(1,4)-dibenzenacyclododecaphane-2-yl)acetic acid]"
3,1000 to 10000 nM,"Cc1c2ccc3c1nnn3CCOCCOC1CCN(CC1)C(=O)c1ccc3ccc(cc3c1)C2CC(=O)O (single isomer, unassigned) [Compound 18]"
4,1000 to 10000 nM,"Cc1c2ccc3c1nnn3CCOCCOC1CCN(CC1)C(=O)c1ccc3ccc(cc3c1)C2CC(=O)O (single isomer, unassigned) [Compound 19]"
5,1000 to 10000 nM,"Cc1c2ccc3c1nnn3CCCOCc1ccc(cc1)C(=O)N(C)Cc1cncc(c1)C2CC(=O)O (single isomer, unassigned) [Compound 20]"
6,1000 to 10000 nM,"Cc1c2ccc3c1nnn3CCCOCc1ccc(cc1)C(=O)N(C)Cc1cncc(c1)C2CC(=O)O (single isomer, unassigned) [Compound 23]"
7,100 to 1000 nM,"Cc1c2ccc3c1nnn3CCCOCc1ccc(cc1)C(=O)N(C)Cc1cccc(n1)C2CC(=O)O (single isomer, unassigned) [Compound 24]"
8,1000 to 10000 nM,"Cc1c2ccc3c1nnn3CCCOCc1ccc(cc1)C(=O)N(C)Cc1cccc(n1)C2CC(=O)O (single isomer, unassigned) [Compound 25]"
9,100 to 1000 nM,"Cc1c2ccc3c1nnn3CCCOCc1ccc(cc1)C(=O)N(C)Cc1cc(ccn1)C2CC(=O)O (single isomer, unassigned) [Compound 26]"
10,1000 to 10000 nM,"Cc1c2ccc3c1nnn3CCCOCc1ccc(cc1)C(=O)N(C)Cc1cc(ccn1)C2CC(=O)O (single isomer, unassigned) [Compound 27]"
11,≤ 100 nM,"Cc1c2ccc3c1nnn3CCCCCC1CCN(CC1)C(=O)N1CCc3ccc(cc3C1)C2CC(=O)O (single isomer, unassigned) [Compound 28]"
12,≤ 100 nM,"Cc1c2ccc3c1nnn3CCCCCC1CCN(CC1)C(=O)N1CCc3ccc(cc3C1)C2CC(=O)O (single isomer, unassigned) [Compound 29]"
13,≤ 100 nM,"Cc1c2ccc3c1nnn3CCCCC1CCC(CC1)C(=O)N1CCc3ccc(cc3C1)C2CC(=O)O (single isomer, unassigned) [Compound 47]"
14,≤ 100 nM,"Cc1c2ccc3c1nnn3CCCCC1CCC(CC1)C(=O)N1CCc3ccc(cc3C1)C2CC(=O)O (single isomer, unassigned) [Compound 48]"
15,≤ 100 nM,"Cc1c2ccc3c1nnn3CCCCCC1CCC(CC1)C(=O)N1CCc3ccc(cc3C1)C2CC(=O)O (single isomer, unassigned) [Compound 49]"
16,≤ 100 nM,"Cc1c2ccc3c1nnn3CCCCCC1CCC(CC1)C(=O)N1CCc3ccc(cc3C1)C2CC(=O)O (single isomer, unassigned) [Compound 50]"
17,100 to 1000 nM,"O=C(O)CC1c2ccc3c(c2)CN(CC3)C(=O)N2CCC(CCCCn3nnc4cc1cnc43)CC2 (single isomer, unassigned) [Compound 51]"
18,≤ 100 nM,"O=C(O)CC1c2ccc3c(c2)CN(CC3)C(=O)N2CCC(CCCCn3nnc4cc1cnc43)CC2 (single isomer, unassigned) [Compound 52]"

row,IC50,SMILES
1,≤ 100 nM,"O=C(O)CC1c2ccc3c(c2)CN(CC3)C(=O)N2CCC(CCCCCn3nnc4cc1cnc43)CC2 (single isomer, unassigned) [Compound 53]"
2,≤ 100 nM,"O=C(O)CC1c2ccc3c(c2)CN(CC3)C(=O)N2CCC(CCCCCn3nnc4cc1cnc43)CC2 (single isomer, unassigned) [Compound 54]"
3,100 to 1000 nM,"Cc1c2ccc3c1nnn3CCOCCOc1ccc(cc1)S(=O)(=O)N1CCc3ccc(cc3C1)C2CC(=O)O (stereo not shown) [Compound 1, tert-butyl 2-(1^4-methyl-4,4-dioxido-3^1,3^2,3^3,3^4-tetrahydro-1^1H-6,9-dioxa-4-thia-3(7,2)-isoquinolina-1(5,1)-benzo[d][1,2,3]triazola-5(1,4)-benzenacycloundecaphane-2-yl)acetic acid]"
4,≤ 100 nM,"Cc1c2ccc3c1nnn3CCCCOC1CCN(CC1)S(=O)(=O)N1CCc3ccc(cc3C1)C2CC(=O)O (stereo not shown) [Compound 6, 2-(1^4-methyl-4,4-dioxido-3^1,3^2,3^3,3^4-tetrahydro-1^1H-6-oxa-4-thia-3(7,2)-isoquinolina-1(5,1)-benzo[d][1,2,3]triazola-5(1,4)-piperidinacyclodecaphane-2-yl)acetic acid]"
5,1000 to 10000 nM,"Cc1c2ccc3c1nnn3CCOCCOC1CCN(CC1)C(=O)c1ccc3c(c1)CN(CC3)C2CC(=O)O (stereo not shown) [Compound 9, 2-(carboxymethyl)-1^4-methyl-4-oxo-3^1,3^2,3^3,3^4-tetrahydro-1^1H-6,9-dioxa-3(2,7)-isoquinolin-2-iuma-1(5,1)-benzo[d][1,2,3]triazola-5(1,4)-piperidinacycloundecaphan-3^2-ium chloride]"
6,≤ 100 nM,"Cc1c2ccc3c1nnn3CCCCOc1ccc(cc1)S(=O)(=O)N1CCc3ccc(cc3C1)C2CC(=O)O (stereo not shown) [Compound 13, 2-(1^4-methyl-4,4-dioxido-3^1,3^2,3^3,3^4-tetrahydro-1^1H-6-oxa-4-thia-3(7,2)-isoquinolina-1(5,1)-benzo[d][1,2,3]triazola-5(1,4)-benzenacyclodecaphane-2-yl)acetic acid]"
7,≤ 100 nM,"Cc1c2ccc3c1nnn3CCOCCOC1CCN(CC1)S(=O)(=O)N1CCc3ccc(cc3C1)C2CC(=O)O (stereo not shown) [Compound 15, 2-(1^4-methyl-4,4-dioxido-3^1,3^2,3^3,3^4-tetrahydro-1^1H-6,9-dioxa-4-thia-3(7,2)-isoquinolina-1(5,1)-benzo[d][1,2,3]triazola-5(1,4)-piperidinacycloundecaphane-2-yl)acetic acid]"
8,100 to 1000 nM,Cc1c2ccc3c1nnn3CCCOCc1ccc(cc1)C(=O)N(C)Cc1ccnc(c1)C2CC(=O)O (stereo not shown) [Compound 21]
9,1000 to 10000 nM,Cc1c2ccc3c1nnn3CCCOCc1ccc(cc1)S(=O)(=O)N(C)Cc1cccc(c1)C2CC(=O)O (stereo not shown) [Compound 22]
10,100 to 1000 nM,Cc1c2ccc3c1nnn3CCCCCC1CCN(CC1)C(=O)N(C)Cc1cccc(c1)C2CC(=O)O (stereo not shown) [Compound 31]
11,1000 to 10000 nM,Cc1c2ccc3c1nnn3CCCCC1CCN(CC1)C(=O)N(C)Cc1cccc(c1)C2CC(=O)O (stereo not shown) [Compound 32]
12,100 to 1000 nM,Cc1c2ccc3c1nnn3CCCCC1CCC(CC1)C(=O)N(C)Cc1cccc(c1)C2CC(=O)O (stereo not shown) [Compound 36]
13,≤ 100 nM,Cc1c2ccc3c1nnn3CCCCCCCCNC(=O)N1CCc3ccc(cc3C1)C2CC(=O)O (stereo not shown) [Compound 38]
14,≤ 100 nM,Cc1c2ccc3c1nnn3CCCCCCCCCC(=O)N1CCc3ccc(cc3C1)C2CC(=O)O (stereo not shown) [Compound 41]
15,≤ 100 nM,Cc1c2ccc3c1nnn3CCCCCCC(=O)N1CCc3ccc(cc3C1)C2CC(=O)O (stereo not shown) [Compound 42]
16,1000 to 10000 nM,Cc1c2ccc3c1nnn3CCCCCNC(=O)N1CCc3ccc(cc3C1)C2CC(=O)O (stereo not shown) [Compound 43]
17,1000 to 10000 nM,"Cc1c2ccc3c1nnn3CCCCCC1CCN(CC1)C(=O)N(C)CCc1ccc(cc1)C2CC(=O)O (stereo not shown) [Compound 44, 2-(14,6-dimethyl-7-oxo-11H-6-aza-1(5,1)-benzo[d][1,2,3]triazola-8(1,4)-piperidina-3(1,4)-benzenacyclotridecaphane-2-yl)acetic acid]"
18,100 to 1000 nM,Cc1c2ccc3c1nnn3CCCCC(=O)N1CCc3ccc(cc3C1)C2CC(=O)O (stereo not shown) [Compound 46]

# System: Nrf2
# Assay: Nrf2 Cellular Assay (pGL4.37[luc2P/ARE/Hygro] luciferase reporter in HepG2 cells)
# Type: cell-based
# Conditions: ARE luciferase, 6 hours compound treatment
# Procedure: Example 2.2 Nrf2 Cellular Assay
# • 1. pGL4.37[luc2P/ARE/Hygro] vector was diluted to 25 ng/μL in Opti-MEM. • 2. Lipofectamine 3000 was added to a 2:1 lipid:DNA. The mixture was mixed by pipetting and incubate at room temperature for 15 minutes. • 3. HepG2 cells were cultured in complete medium (DMEM+10% FBS). • 4. Trypsin was added to the cells, which were filtered via a cell strainer to remove cell cluster, the cells were then quantified and diluted to 2×10^5 cells/ml in complete medium. • 5. The cells and plasmid were mixed, seeded to 384-well plate 50 μL per well (50 ng DNA/well) and incubated for 24 hours in a 37° C., 5% CO2 incubator.
# • 1. Medium was removed from cells and replaced with 36 μL of DMEM+10% FBS per well. • 2. Incubated overnight in a 37° C., 5% CO2 incubator.
# • 1. Test compound was serially diluted tin DMSO, and further diluted with DMEM (contains 10% FBS) to 10× final concentration. • 2. 4 μL of the 10× compound was added to each well, the plate was shaken for 10 sec on a plate shaker and incubated for 6 hours in a 37° C., 5% CO2 incubator.
# • 1. Plates were removed from the 37° C., 5% CO2 incubator and allowed to cool to room temperature for approximately 15 minutes. • 2. 40 μL of the Glo Luciferase Assay System detection reagents were added, and the plate was shaken for 3 min and luminescence was measured.
row,EC50,SMILES
1,≤ 10 µM,"O=C(O)CC1c2ccc3c(c2)CN(CC3)C(=O)N2CCC(CCCCCn3nnc4cc1cnc43)CC2 (single isomer, unassigned) [Compound 54]"

# Same assay, conditions: Homo sapiens, HepG2, 6 h, ARE luciferase, 6 hours compound treatment
row,EC50,SMILES
1,> 30 µM,"Cc1ccc2cc1CN(C)C(=O)c1ccc(cc1)COCCCn1nnc3c(C)c(ccc31)C2CC(=O)O (single isomer, unassigned) [Compound 17, 2-(1^4,3^4,5-trimethyl-6-oxo-1^1H-9-oxa-5-aza-1(5,1)-benzo[d][1,2,3]triazola-3(1,3), 7(1,4)-dibenzenacyclododecaphane-2-yl)acetic acid]"
2,10 to 30 µM,"O=C(O)CC1c2ccc3c(c2)CN(CC3)C(=O)N2CCC(CCCCCn3nnc4cc1cnc43)CC2 (single isomer, unassigned) [Compound 53]"
3,> 30 µM,"Cc1c2ccc3c1nnn3CCOCCOc1ccc(cc1)S(=O)(=O)N1CCc3ccc(cc3C1)C2CC(=O)O (stereo not shown) [Compound 1, tert-butyl 2-(1^4-methyl-4,4-dioxido-3^1,3^2,3^3,3^4-tetrahydro-1^1H-6,9-dioxa-4-thia-3(7,2)-isoquinolina-1(5,1)-benzo[d][1,2,3]triazola-5(1,4)-benzenacycloundecaphane-2-yl)acetic acid]"
